Patent EP3169154B1, “DILUENT FOR SEMEN PRESERVATION” (Politécnico Colombiano Jaime Isaza Cadavid, priority 2014, dated 2016)

How the values were obtained:
semen ejaculates [1] = test: Inhibition of ROS production in semen ejaculates; assay type: cell-based; conditions: for inhibition at 20 µM: 20 µM in diluent of Example 1; for inhibition at 40 µM: 40 µM in diluent of Example 1; for inhibition at 50 µM: 50 µM in diluent of Example 1; for inhibition at 60 µM: 60 µM in diluent of Example 1; for inhibition at 80 µM: 80 µM in diluent of Example 1; for inhibition at 100 µM: 100 µM in diluent of Example 1
Method: (§1) Two diluents are prepared in accordance with Example 1, adding isoespintanol to one of them, and thymol to the other. In order to determine the cytoprotective (antioxidant) potential of each, the effects of adding different concentrations of these compounds to semen ejaculates were studied. The inhibition of ROS production and the reduction of lipid peroxidation were assessed, thereby determining the effective range as well as the maximum inhibitory concentration of thymol and isoespintanol (Tables 2 and 3). Table 2. Results of the inhibition of ROS production

semen ejaculates [2] = test: Lipid peroxidation inhibition in semen ejaculates; assay type: cell-based; conditions: for inhibition at 20 µM: 20 µM in diluent of Example 1; for inhibition at 40 µM: 40 µM in diluent of Example 1; for inhibition at 50 µM: 50 µM in diluent of Example 1; for inhibition at 60 µM: 60 µM in diluent of Example 1; for inhibition at 80 µM: 80 µM in diluent of Example 1; for inhibition at 100 µM: 100 µM in diluent of Example 1
Method: as §1

[3] = test system: carrageenan-induced foot inflammation; conditions: some rodents; cited from earlier work
interleukin-1β = conditions: cited from earlier work

SMILES | inhibition at 20 µM (semen ejaculates [1]) [%] | inhibition at 40 µM (semen ejaculates [1]) [%] | inhibition at 50 µM (semen ejaculates [1]) [%] | inhibition at 60 µM (semen ejaculates [1]) [%] | inhibition at 80 µM (semen ejaculates [1]) [%] | inhibition at 100 µM (semen ejaculates [1]) [%] | inhibition at 20 µM (semen ejaculates [2]) [%] | inhibition at 40 µM (semen ejaculates [2]) [%] | inhibition at 50 µM (semen ejaculates [2]) [%] | inhibition at 60 µM (semen ejaculates [2]) [%] | inhibition at 80 µM (semen ejaculates [2]) [%] | inhibition at 100 µM (semen ejaculates [2]) [%] | reduction of carrageenan-induced foot inflammation [3] [%] | reduction of interleukin-1β production (interleukin-1β) [%]
Cc1ccc(C(C)C)c(O)c1 [thymol, 2-isopropyl-5-methylphenol, reference compound] | 11.7 | 12.3 | 51.2 | 26 | 21 | 27.6 | 48.1 | 47.7 | 40.8 | 36.6 | 47 | 28.3 | – | –
COc1cc(C)c(OC)c(O)c1C(C)C [isoespintanol, 2-isopropyl-3,6-dimethoxy-5-methylphenol] | 16 | 24.2 | 34.5 | 16.9 | 6.1 | 5.6 | 21.1 | 29.9 | 29.4 | 51.1 | 42.1 | 29.8 | 43 | ≤ 72
